Assay results taken from ChEMBL document CHEMBL4414672, “Synthesis of certain benzothieno[3,2-d]pyrimidine derivatives as a selective SIRT2 inhibitors” (Eur J Med Chem, 2020).

How the values were obtained:
Type in all cases: functional
MDA-MB-231 = assay: Growth inhibition of human MDA-MB-231 cells at 10^-5 M incubated for 48 hrs by sulforhodamine B assay; conditions: MDA-MB-231, 48 h, read-out: GI
MDA-MB-435 = assay: Growth inhibition of human MDA-MB-435 cells at 10^-5 M incubated for 48 hrs by sulforhodamine B assay; conditions: MDA-MB-435, 48 h, read-out: GI
CCRF-CEM = assay: Growth inhibition of human CCRF-CEM cells at 10^-5 M incubated for 48 hrs by sulforhodamine B assay; conditions: read-out: GI
HOP-92 = assay: Growth inhibition of human HOP92 cells at 10^-5 M incubated for 48 hrs by sulforhodamine B assay; conditions: HOP-92, 48 h, read-out: GI
IGROV-1 = assay: Growth inhibition of human IGROV1 cells at 10^-5 M incubated for 48 hrs by sulforhodamine B assay; conditions: IGROV-1, 48 h, read-out: GI
MCF7 = assay: Growth inhibition of human MCF7 cells at 10^-5 M incubated for 48 hrs by sulforhodamine B assay; conditions: MCF7, 48 h, read-out: GI
SW-620 = assay: Growth inhibition of human SW620 cells at 10^-5 M incubated for 48 hrs by sulforhodamine B assay; conditions: SW-620, 48 h, read-out: GI
M14 = assay: Growth inhibition of human M14 cells at 10^-5 M incubated for 48 hrs by sulforhodamine B assay; conditions: M14, 48 h, read-out: GI
MDA-MB-468 = assay: Growth inhibition of human MDA-MB-468 cells at 10^-5 M incubated for 48 hrs by sulforhodamine B assay; conditions: MDA-MB-468, 48 h, read-out: GI
OVCAR-4 = assay: Growth inhibition of human OVCAR4 cells at 10^-5 M incubated for 48 hrs by sulforhodamine B assay; conditions: OVCAR-4, 48 h, read-out: GI
HL-60(TB) = assay: Growth inhibition of human HL-60(TB) cells at 10^-5 M incubated for 48 hrs by sulforhodamine B assay; conditions: HL-60, 48 h, read-out: GI
MOLT-4 = assay: Growth inhibition of human MOLT4 cells at 10^-5 M incubated for 48 hrs by sulforhodamine B assay; conditions: MOLT-4, 48 h, read-out: GI
NCI-H322M = assay: Growth inhibition of human NCI-H322M cells at 10^-5 M incubated for 48 hrs by sulforhodamine B assay; conditions: read-out: GI
DU-145 = assay: Growth inhibition of human DU145 cells at 10^-5 M incubated for 48 hrs by sulforhodamine B assay; conditions: DU-145, 48 h, read-out: GI
EKVX = assay: Growth inhibition of human EKVX cells at 10^-5 M incubated for 48 hrs by sulforhodamine B assay; conditions: read-out: GI
A549 = assay: Growth inhibition of human A549/ATCC cells at 10^-5 M incubated for 48 hrs by sulforhodamine B assay; conditions: A549, 48 h, read-out: GI
HT-29 = assay: Growth inhibition of human HT-29 cells at 10^-5 M incubated for 48 hrs by sulforhodamine B assay; conditions: HT-29, 48 h, read-out: GI
UO-31 = assay: Growth inhibition of human UO31 cells at 10^-5 M incubated for 48 hrs by sulforhodamine B assay; conditions: UO-31, 48 h, read-out: GI
ACHN = assay: Growth inhibition of human ACHN cells at 10^-5 M incubated for 48 hrs by sulforhodamine B assay; conditions: read-out: GI
NCI-H226 = assay: Growth inhibition of human NCI-H226 cells at 10^-5 M incubated for 48 hrs by sulforhodamine B assay; conditions: NCI-H226, 48 h, read-out: GI
K562 = assay: Growth inhibition of human K562 cells at 10^-5 M incubated for 48 hrs by sulforhodamine B assay; conditions: K562, 48 h, read-out: GI
NCI-H23 = assay: Growth inhibition of human NCI-H23 cells at 10^-5 M incubated for 48 hrs by sulforhodamine B assay; conditions: NCI-H23, 48 h, read-out: GI
KM12 = assay: Growth inhibition of human KM12 cells at 10^-5 M incubated for 48 hrs by sulforhodamine B assay; conditions: KM12, 48 h, read-out: GI
HOP-62 = assay: Growth inhibition of human HOP62 cells at 10^-5 M incubated for 48 hrs by sulforhodamine B assay; conditions: HOP-62, 48 h, read-out: GI
HCT-116 = assay: Growth inhibition of human HCT116 cells at 10^-5 M incubated for 48 hrs by sulforhodamine B assay; conditions: HCT-116, 48 h, read-out: GI
T47D = assay: Growth inhibition of human T47D cells at 10^-5 M incubated for 48 hrs by sulforhodamine B assay; conditions: read-out: GI
SR = assay: Growth inhibition of human SR cells at 10^-5 M incubated for 48 hrs by sulforhodamine B assay; conditions: read-out: GI
OVCAR-3 = assay: Growth inhibition of human OVCAR3 cells at 10^-5 M incubated for 48 hrs by sulforhodamine B assay; conditions: OVCAR-3, 48 h, read-out: GI
OVCAR-8 = assay: Growth inhibition of human OVCAR8 cells at 10^-5 M incubated for 48 hrs by sulforhodamine B assay; conditions: OVCAR-8, 48 h, read-out: GI
SK-MEL-28 = assay: Growth inhibition of human SK-MEL-28 cells at 10^-5 M incubated for 48 hrs by sulforhodamine B assay; conditions: SK-MEL-28, 48 h, read-out: GI
TK-10 = assay: Growth inhibition of human TK10 cells at 10^-5 M incubated for 48 hrs by sulforhodamine B assay; conditions: TK-10, 48 h, read-out: GI
CAKI-1 = assay: Growth inhibition of human Caki1 cells at 10^-5 M incubated for 48 hrs by sulforhodamine B assay; conditions: CAKI-1, 48 h, read-out: GI
A498 = assay: Growth inhibition of human A498 cells at 10^-5 M incubated for 48 hrs by sulforhodamine B assay; conditions: A498, 48 h, read-out: GI
Hs-578T = assay: Growth inhibition of human Hs 578T cells at 10^-5 M incubated for 48 hrs by sulforhodamine B assay; conditions: read-out: GI
SF-268 = assay: Growth inhibition of human SF268 cells at 10^-5 M incubated for 48 hrs by sulforhodamine B assay; conditions: SF-268, 48 h, read-out: GI
Malme-3M = assay: Growth inhibition of human MALME-3M cells at 10^-5 M incubated for 48 hrs by sulforhodamine B assay; conditions: read-out: GI
NCI-H522 = assay: Growth inhibition of human NCI-H522 cells at 10^-5 M incubated for 48 hrs by sulforhodamine B assay; conditions: NCI-H522, 48 h, read-out: GI
SF-295 = assay: Growth inhibition of human SF295 cells at 10^-5 M incubated for 48 hrs by sulforhodamine B assay; conditions: SF-295, 48 h, read-out: GI
BT-549 = assay: Growth inhibition of human BT549 cells at 10^-5 M incubated for 48 hrs by sulforhodamine B assay; conditions: BT-549, 48 h, read-out: GI

SMILES	inhibition of growth at 10 µM (MDA-MB-231)	inhibition of growth at 10 µM (MDA-MB-435)	inhibition of growth at 10 µM (CCRF-CEM)	inhibition of growth at 10 µM (HOP-92)	inhibition of growth at 10 µM (IGROV-1)	inhibition of growth at 10 µM (MCF7)	inhibition of growth at 10 µM (SW-620)	inhibition of growth at 10 µM (M14)	inhibition of growth at 10 µM (MDA-MB-468)	inhibition of growth at 10 µM (OVCAR-4)	inhibition of growth at 10 µM (HL-60(TB))	inhibition of growth at 10 µM (MOLT-4)	inhibition of growth at 10 µM (NCI-H322M)	inhibition of growth at 10 µM (DU-145)	inhibition of growth at 10 µM (EKVX)	inhibition of growth at 10 µM (A549)	inhibition of growth at 10 µM (HT-29)	inhibition of growth at 10 µM (UO-31)	inhibition of growth at 10 µM (ACHN)	inhibition of growth at 10 µM (NCI-H226)	further results
O=C1/C(=C\c2cccc([N+](=O)[O-])c2)Sc2ccc(Cl)cc21	9.23%	35.4%	-0.32%	42.7%	19.9%	22.4%	2.49%	4.61%	13.1%	21.4%	-10.8%	2.66%	4.18%	-3.94%	4.33%	-6.89%	-3.12%	11.3%	27%	5.97%	inhibition of growth at 10 µM (K562): 10.5%; inhibition of growth at 10 µM (NCI-H23): 16.7%; inhibition of growth at 10 µM (KM12): -2.29%; inhibition of growth at 10 µM (HOP-62): -0.47%; inhibition of growth at 10 µM (HCT-116): 45.9%; inhibition of growth at 10 µM (T47D): 13.1%; inhibition of growth at 10 µM (SR): 54.8%; inhibition of growth at 10 µM (OVCAR-3): -2.4%; inhibition of growth at 10 µM (OVCAR-8): 0.87%; inhibition of growth at 10 µM (SK-MEL-28): -11.7%; inhibition of growth at 10 µM (TK-10): -12.1%; inhibition of growth at 10 µM (CAKI-1): -4.55%; inhibition of growth at 10 µM (A498): 11.5%; inhibition of growth at 10 µM (Hs-578T): -8.12%; inhibition of growth at 10 µM (SF-268): 7.22%; inhibition of growth at 10 µM (Malme-3M): 22.4%; inhibition of growth at 10 µM (NCI-H522): 25.8%; inhibition of growth at 10 µM (SF-295): -3.16%; inhibition of growth at 10 µM (BT-549): 20.8%
O=C1CSC2=Nc3c(sc4ccc(Cl)cc34)C(c3ccc4ccccc4c3)N12 (stereo unspecified)	19.7%	-5.65%	-4.04%	6.48%	10.4%	27.3%	-3.91%	6.91%	2.47%	3.47%	-2.82%	13.7%	6.48%	-8.09%	7.05%	4.93%	-0.5%	37.4%	7.81%	16.7%	inhibition of growth at 10 µM (K562): 7.65%; inhibition of growth at 10 µM (NCI-H23): 14.1%; inhibition of growth at 10 µM (KM12): 3.7%; inhibition of growth at 10 µM (HOP-62): 6.69%; inhibition of growth at 10 µM (HCT-116): -7.67%; inhibition of growth at 10 µM (T47D): 15.7%; inhibition of growth at 10 µM (SR): 15.4%; inhibition of growth at 10 µM (OVCAR-3): -0.24%; inhibition of growth at 10 µM (OVCAR-8): 3.28%; inhibition of growth at 10 µM (SK-MEL-28): -15%; inhibition of growth at 10 µM (TK-10): -19.4%; inhibition of growth at 10 µM (CAKI-1): 27.5%; inhibition of growth at 10 µM (A498): 20%; inhibition of growth at 10 µM (Hs-578T): -0.18%; inhibition of growth at 10 µM (SF-268): 10.3%; inhibition of growth at 10 µM (Malme-3M): 4.51%; inhibition of growth at 10 µM (NCI-H522): 1.87%; inhibition of growth at 10 µM (SF-295): -4.03%; inhibition of growth at 10 µM (BT-549): -8.05%
O=C1Nc2c(sc3ccc(Cl)cc23)C(c2ccc3ccccc3c2)N1 (stereo unspecified)	14.8%	-8.72%	-13.3%	24.7%	17.4%	22.5%	1.75%	6.72%	-13.7%	3.19%	5.39%	12.9%	9.44%	-6.96%	16.5%	4.41%	-0.76%	37.4%	10.1%	7.25%	inhibition of growth at 10 µM (K562): 14%; inhibition of growth at 10 µM (NCI-H23): 11.7%; inhibition of growth at 10 µM (KM12): -4.05%; inhibition of growth at 10 µM (HOP-62): 13.9%; inhibition of growth at 10 µM (HCT-116): -4.42%; inhibition of growth at 10 µM (T47D): 24.2%; inhibition of growth at 10 µM (SR): 20.9%; inhibition of growth at 10 µM (OVCAR-3): 3.83%; inhibition of growth at 10 µM (OVCAR-8): 6.44%; inhibition of growth at 10 µM (SK-MEL-28): 3.5%; inhibition of growth at 10 µM (TK-10): 15.4%; inhibition of growth at 10 µM (CAKI-1): 23.3%; inhibition of growth at 10 µM (A498): 15.2%; inhibition of growth at 10 µM (Hs-578T): 3.46%; inhibition of growth at 10 µM (SF-268): 6.94%; inhibition of growth at 10 µM (Malme-3M): 17.3%; inhibition of growth at 10 µM (NCI-H522): 11.9%; inhibition of growth at 10 µM (SF-295): 2.29%; inhibition of growth at 10 µM (BT-549): -1.2%
O=[N+]([O-])c1cccc(C2NC(N3CCOCC3)=Nc3c2sc2ccc(Cl)cc32)c1 (stereo unspecified)	18.3%	-6.59%	-3.36%	10.1%	25%	23.1%	-1.57%	-1.17%	-5.77%	1.77%	-10.4%	1.35%	6.39%	-13.7%	16.4%	-1.35%	-2.72%	41.8%	10.4%	14.4%	inhibition of growth at 10 µM (K562): -3.76%; inhibition of growth at 10 µM (NCI-H23): 13.4%; inhibition of growth at 10 µM (KM12): 4.2%; inhibition of growth at 10 µM (HOP-62): 9.52%; inhibition of growth at 10 µM (HCT-116): 6.8%; inhibition of growth at 10 µM (T47D): 21.6%; inhibition of growth at 10 µM (SR): 1.5%; inhibition of growth at 10 µM (OVCAR-3): -0.17%; inhibition of growth at 10 µM (OVCAR-8): -3%; inhibition of growth at 10 µM (SK-MEL-28): -22.1%; inhibition of growth at 10 µM (TK-10): -10.7%; inhibition of growth at 10 µM (CAKI-1): 27.7%; inhibition of growth at 10 µM (A498): 1.88%; inhibition of growth at 10 µM (Hs-578T): 1.47%; inhibition of growth at 10 µM (SF-268): 3.84%; inhibition of growth at 10 µM (Malme-3M): 4.08%; inhibition of growth at 10 µM (NCI-H522): 3.46%; inhibition of growth at 10 µM (SF-295): -4.89%; inhibition of growth at 10 µM (BT-549): -6.2%
